How the values were obtained:
COV318 cells = test: Cell cycle analysis by FACS after p16 knockdown; format: cell-based, human; settings: 100 nM, 16 hours
Method: To confirm the role of p16 in CDK2-sensitivity of CCNE1-amplified cells, COV318 cells were treated with control or p16-specific siRNA.
(§1) Bulk DNA was stained with DAPI. Compound-treated and DMSO treated control cells were acquired with CytoFlex (Beckman Coulter) and were analyzed using the FlowJo software. For cell cycle analysis of cells with siRNA knockdown, 72 hours after siRNA transfection, cells exposed to 10 μM EdU for 3 hours before detection of Click-iT Alexa Fluor® 647 azide kit.

[1] = tested on: Rb phosphorylated on serine 780 in CCNE1 amplified COV318 cells; test: CDK2 pRb (S780) HTRF cellular assay; format: cell-based; settings: Homo sapiens, read-out: IC50 in p-RB S780 HTRF cellular assay
human JAK1 = human JAK1 (Homo sapiens, UniProt P23458); test: JAK inhibitory activity assay (JAK1); format: biochemical; settings: 1 mM ATP
Method: (§2) Compounds herein were tested for inhibitory activity of JAK targets according to the following in vitro assay described in Park et al., Analytical Biochemistry 1999, 269, 94-104. The catalytic domains of human JAK1 (a.a. 837-1142), Jak2 (a.a. 828-1132) and Jak3 (a.a. 781-1124) with an N-terminal His tag were expressed using baculovirus in insect cells and purified. The catalytic activity of JAK1 and JAK2 was assayed by measuring the phosphorylation of a biotinylated peptide. The phosphorylated peptide was detected by homogenous time resolved fluorescence (HTRF). Each enzyme reaction was carried out with or without test compound (11-point dilution), JAK enzyme, 500 nM peptide, adenosine triphosphate (ATP; 1 mM), and 2.0% dimethyl sulfoxide (DMSO) in assay buffer (50 mM Tris (pH 7.8) buffer, 100 mM NaCl, 5 mM DTT, and 0.1 mg/mL (0.01%) BSA). The peptide substrate (Biotin-[…]) was custom synthesized by Biosource International. Reactions were carried out at room temperature for 1 hour and then stopped with 10 μL 45 mM EDTA, 200 nM SA-APC, 4 nM Eu-Py20 in assay buffer (Perkin Elmer, Boston, Mass.). After incubation for 30 minutes at room temperature, the HTRF signal was measured on a PheraStar plate reader.

JAK2 = JAK2 (Homo sapiens (Human), UniProt O60674); test: JAK inhibitory activity assay (JAK2); format: biochemical; settings: 1 mM ATP
Method: as §2

CDK2/Cyclin E1 = CDK2/Cyclin E1 (Homo sapiens (Human), UniProt P24941); test: CDK2/Cyclin E1 HTRF enzyme activity assay; format: biochemical; settings: 1 mM ATP
Method: Assays are conducted in white 384-well polystyrene plates in a final reaction volume of 8 μL. […] HTRF signals are read after 1 hour at room temperature on a PHERAstar FS plate reader (BMG Labtech). Data is analyzed with IDBS XLFit and GraphPad Prism 5.0 software using a three or four parameter dose response curve to determine IC50 for each compound.

[2] = tested on: Rb phosphorylation at S780 in CCNE1-amplified cell lines (OVCAR3 and COV318); test: Western blot of Rb phosphorylation at S780, CCNE1-amplified cell lines; format: cell-based, human; settings: OVCAR3 and COV318, various doses, 1 or 15 hours; listed as Palbociclib
Method: (§3) The effect of CDK4/6-inhibition on Rb phosphorylation at S780 in CCNE1-amplified versus CCNE1-non-amplified cell lines was evaluated. […] One or 15 hours after treatment, the cells were harvested and total protein was extracted and analyzed by western blot (FIG. 8).
(§4) Whole cell extracts were prepared using RIPA buffer (Thermo Scientific, 89900) with a Halt Protease and Phosphatase Inhibitor Cocktail (Thermo Scientific, 78440). Protein concentration was quantified with a BCA Protein Assay Kit (Thermo Scientific, 23225) and 40 μg of protein lysates were loaded for SDS-PAGE using precast gradient gels (Bio-Rad, Hercules, No. 456-1094). Samples were diluted in 5× Laemmli buffer (300 mM Tris-HCl pH 6.8, 10% SDS (w/v), 5% 2-mercaptoethanol, 25% glycerol (v/v), 0.1% bromophenol blue w/v) and boiled for 5 minutes. 35 μg of proteins were separated by 8-15% SDS-PAGE and transferred onto polyvinylidene fluoride (PVDF) membranes. Unspecific binding sites on the PVDF membranes were blocked with 5% non-fat milk in TEST (20 mM Tris-HCl, pH 7.6, 137 mM NaCl, 1% Tween-20). […] Images were captured by Luminescence/Fluorescence Imaging System Odyssey CLx Imager (LI-COR).

[3] = tested on: CCNE1-amplified cell lines (COV318 and OVCAR3); test: Cell cycle analysis by FACS, CCNE1-amplified cell lines; format: cell-based, human; settings: for inhibition of proliferation: CCNE1-amplified OVCAR3 cells, 16 hours, increasing concentrations, vs DMSO
Method: (§5) The effect of CDK4/6-inhibition in CCNE1-amplified versus CCNE1-non-amplified cell lines was evaluated.
(§6) A similar experiment was performed in a larger set of CCNE1-amplified cell lines (COV318 and OVCAR3) and CCNE1-non-amplified cell lines (COV504, OV56, and Igrov1) (FIG. 6).
as §1

[4] = tested on: Rb phosphorylation at S780 in CCNE1-non-amplified cell lines (COV504 and OV56); test: Western blot of Rb phosphorylation at S780, CCNE1-non-amplified cell lines; format: cell-based, human; settings: COV504 and OV56, various doses, 1 or 15 hours
Method: as §3, §4

[5] = tested on: CCNE1-non-amplified cell lines (COV504, OV56, and Igrov1); test: Cell cycle analysis by FACS, CCNE1-non-amplified cell lines; format: cell-based, human; settings: for inhibition of proliferation: CCNE1-non-amplified COV504 cells, 16 hours, increasing concentrations, vs DMSO; for percentage of cells at the S phase: COV504, OV56, Igrov1, 16 hours after treatment, compared to DMSO
Method: as §5, §6, §1

Sequence of JAK2 (O60674 828-1132): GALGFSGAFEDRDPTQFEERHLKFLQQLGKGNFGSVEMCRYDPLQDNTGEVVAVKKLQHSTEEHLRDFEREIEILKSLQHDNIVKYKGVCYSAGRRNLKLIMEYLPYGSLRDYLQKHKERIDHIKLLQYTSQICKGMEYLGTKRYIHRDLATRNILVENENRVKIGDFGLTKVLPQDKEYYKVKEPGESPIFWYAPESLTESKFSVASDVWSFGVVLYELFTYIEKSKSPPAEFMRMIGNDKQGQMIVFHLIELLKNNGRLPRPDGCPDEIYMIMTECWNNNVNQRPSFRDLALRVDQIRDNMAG

Row | SMILES | IC50 (human JAK1) | IC50 (JAK2) | IC50 (CDK2/Cyclin E1) | also measured
1 | C[C@@]1(O)CCC[C@H]1n1c(=O)ccc2cnc(NC3CCN(S(C)(=O)=O)CC3)nc21 [Compound A, 8-((1R,2R)-2-hydroxy-2-methylcyclopentyl)-2-((1-(methylsulfonyl)piperidin-4-yl)amino)pyrido[2,3-d]pyrimidin-7(8H)-one] | – | – | – | percentage of S phase cells (COV318 cells; control siRNA-treated COV318 cells): significantly decreased; percentage of S phase cells (COV318 cells; p16 knocked down COV318 cells, compared to DMSO): not significantly decreased; IC50 [1]: 0.037 µM
2 | CN1CCC(n2cc(-c3nc(NC4CCN(S(C)(=O)=O)CC4)ncc3C(F)(F)F)cn2)CC1 [Example 11, 4-(1-(1-Methylpiperidin-4-yl)-1H-pyrazol-4-yl)-N-(1-(methylsulfonyl)piperidin-4-yl)-5-(trifluoromethyl)pyrimidin-2-amine] | ≥ 10 µM | ≥ 10 µM | < 0.05 µM | –
3 | CNCc1ccc(-n2cc(-c3nc(NC4CCN(S(C)(=O)=O)CC4)ncc3C(F)(F)F)cn2)c(C)c1 [Example 41, 4-(1-(2-Methyl-4-((methylamino)methyl)phenyl)-1H-pyrazol-4-yl)-N-(1-(methylsulfonyl)piperidin-4-yl)-5-(trifluoromethyl)pyrimidin-2-amine] | ≥ 10 µM | ≥ 10 µM | < 0.05 µM | –
4 | CO[C@H]1CC[C@H](n2cc(-c3nc(NC4CCN(S(=O)(=O)c5cn(C)cn5)CC4)ncc3C(F)(F)F)cn2)CC1 [Example 42, 4-(1-((1r,4r)-4-Methoxycyclohexyl)-1H-pyrazol-4-yl)-N-(1-((1-methyl-1H-imidazol-4-yl)sulfonyl)piperidin-4-yl)-5-(trifluoromethyl)pyrimidin-2-amine] | ≥ 5 µM | ≥ 5 µM | < 0.05 µM | –
5 | C[C@]1(N)C[C@@H](n2cc(-c3nc(NC4CCN(S(=O)(=O)C5CC5)CC4)ncc3C(F)(F)F)cn2)C1 [Example 44, 4-(1-((1s,3s)-3-Amino-3-methylcyclobutyl)-1H-pyrazol-4-yl)-N-(1-(cyclopropylsulfonyl)piperidin-4-yl)-5-(trifluoromethyl)pyrimidin-2-amine] | ≥ 10 µM | ≥ 10 µM | < 0.05 µM | –
6 | CC(C)(O)Cn1cc(-c2nc(NC3CCN(S(=O)(=O)C4CC4)CC3)ncc2C(F)(F)F)cn1 [Example 51, 1-(4-(2-((1-(Cyclopropylsulfonyl)piperidin-4-yl)amino)-5-(trifluoromethyl)pyrimidin-4-yl)-1H-pyrazol-1-yl)-2-methylpropan-2-ol] | ≥ 10 µM | ≥ 10 µM | < 0.05 µM | –
7 | CC(C)(O)Cn1cc(-c2nc(NC3CCN(S(=O)(=O)C4CC4)CC3)ncc2C#N)cn1 [Example 54, 2-((1-(Cyclopropylsulfonyl)piperidin-4-yl)amino)-4-(1-(2-hydroxy-2-methylpropyl)-1H-pyrazol-4-yl)pyrimidine-5-carbonitrile] | ≥ 10 µM | ≥ 10 µM | < 0.05 µM | –
8 | CC(C)(C(N)=O)n1cc(-c2nc(NC3CCN(S(=O)(=O)c4ccccn4)CC3)ncc2C(F)(F)F)cn1 [Example 96, 2-Methyl-2-(4-(2-((1-(pyridin-2-ylsulfonyl)piperidin-4-yl)amino)-5-(trifluoromethyl)pyrimidin-4-yl)-1H-pyrazol-1-yl)propanamide] | ≥ 10 µM | ≥ 10 µM | < 0.05 µM | –
9 | CN1CCN(Cc2ccc(-n3cc(-c4nc(NC5CCN(S(C)(=O)=O)CC5)ncc4C#N)cn3)c(Cl)c2)CC1 [Example 99, 4-(1-(2-Chloro-4-((4-methylpiperazin-1-yl)methyl)phenyl)-1H-pyrazol-4-yl)-2-((1-(methylsulfonyl)piperidin-4-yl)amino)pyrimidine-5-carbonitrile] | ≥ 10 µM | ≥ 10 µM | < 0.05 µM | –
10 | CC(=O)c1c(C)c2cnc(Nc3ccc(N4CCNCC4)cn3)nc2n(C2CCCC2)c1=O [palbociclib] | – | – | – | IC50 [1]: > 3 µM; Rb phosphorylation at S780 [2]: not in amplified ovarian cells; inhibition of proliferation [3]: not in CCNE1-amplified cells; inhibition of proliferation ([3]; listed as Palbociclib): not in amplified cell lines; percentage of cells at the S phase ([3]; COV318 and OVCAR3, 16 hours after treatment, compared to DMSO): not significantly different; Rb phosphorylation at S780 [4]: blocked Rb phosphorylation at S780; Rb phosphorylation at S780 ([4]; listed as Palbociclib): blocks RB phosphorylation at S780; inhibition of proliferation [5]: dose-dependent inhibition of the proliferation; inhibition of proliferation ([5]; listed as Palbociclib): dose-dependent inhibition of proliferation; percentage of cells at the S phase [5]: decreased in CCNE1-non-amplified cell lines in a dose-dependent fashion; percentage of cells at the S phase ([5]; listed as Palbociclib): selectively inhibits proliferation

From US11472791B2 (Incyte Corporation, priority 2019, dated 2022)
